Numbers after ± are expanded uncertainties.
Test: mean ionic activity coefficient (dimensionless); mn = molality of the nth substance listed, in mol/kg
Conditions: 298.15 K, 101 kPa, Liquid, ion-selective electrode

[Cs+].[F-] [cesium fluoride (CsF)] + O
mean ionic activity coefficient (m1 = 0.0043): 0.9338 ± 0.0011
mean ionic activity coefficient (m1 = 0.0085): 0.9112 ± 0.0009
mean ionic activity coefficient (m1 = 0.0128): 0.8953 ± 0.0007
mean ionic activity coefficient (m1 = 0.0172): 0.8824 ± 0.0005
mean ionic activity coefficient (m1 = 0.0215): 0.872 ± 0.0005
mean ionic activity coefficient (m1 = 0.0258): 0.863 ± 0.0004
mean ionic activity coefficient (m1 = 0.0302): 0.8551 ± 0.0003
mean ionic activity coefficient (m1 = 0.0346): 0.848 ± 0.0003
mean ionic activity coefficient (m1 = 0.0391): 0.8416 ± 0.0003
mean ionic activity coefficient (m1 = 0.0437): 0.8355 ± 0.0002
mean ionic activity coefficient (m1 = 0.0523): 0.8257 ± 0.0002
mean ionic activity coefficient (m1 = 0.0608): 0.8173 ± 0.0002
mean ionic activity coefficient (m1 = 0.0698): 0.8096 ± 0.0002
mean ionic activity coefficient (m1 = 0.0787): 0.8028 ± 0.0002
mean ionic activity coefficient (m1 = 0.0875): 0.7968 ± 0.0001
mean ionic activity coefficient (m1 = 0.1003): 0.7892 ± 0.0001
mean ionic activity coefficient (m1 = 0.1138): 0.7822 ± 0.0001
mean ionic activity coefficient (m1 = 0.1268): 0.7762 ± 0.0001
mean ionic activity coefficient (m1 = 0.1455): 0.7689 ± 0.0001
mean ionic activity coefficient (m1 = 0.1632): 0.7629 ± 0.0001
mean ionic activity coefficient (m1 = 0.1817): 0.7575 ± 0.0001
mean ionic activity coefficient (m1 = 0.2045): 0.7517 ± 0.0001
mean ionic activity coefficient (m1 = 0.226): 0.7471 ± 0.0001
mean ionic activity coefficient (m1 = 0.2524): 0.7423 ± 0.0001
mean ionic activity coefficient (m1 = 0.2823): 0.7377 ± 0.0001
mean ionic activity coefficient (m1 = 0.3166): 0.7335 ± 0.0001
mean ionic activity coefficient (m1 = 0.3589): 0.7294 ± 0.0001
mean ionic activity coefficient (m1 = 0.4086): 0.7259 ± 0.0001
mean ionic activity coefficient (m1 = 0.4762): 0.7227 ± 0.0001

[F-].[Rb+] [rubidium fluoride (RbF)] + O
mean ionic activity coefficient (m1 = 0.0046): 0.9305 ± 0.001
mean ionic activity coefficient (m1 = 0.0096): 0.9047 ± 0.0009
mean ionic activity coefficient (m1 = 0.014): 0.8889 ± 0.0006
mean ionic activity coefficient (m1 = 0.0187): 0.8759 ± 0.0005
mean ionic activity coefficient (m1 = 0.0232): 0.8654 ± 0.0004
mean ionic activity coefficient (m1 = 0.0275): 0.8567 ± 0.0004
mean ionic activity coefficient (m1 = 0.0321): 0.8486 ± 0.0003
mean ionic activity coefficient (m1 = 0.0367): 0.8414 ± 0.0003
mean ionic activity coefficient (m1 = 0.0411): 0.8351 ± 0.0003
mean ionic activity coefficient (m1 = 0.0506): 0.8235 ± 0.0002
mean ionic activity coefficient (m1 = 0.0596): 0.8141 ± 0.0002
mean ionic activity coefficient (m1 = 0.0685): 0.806 ± 0.0002
mean ionic activity coefficient (m1 = 0.0772): 0.799 ± 0.0002
mean ionic activity coefficient (m1 = 0.0915): 0.7891 ± 0.0001
mean ionic activity coefficient (m1 = 0.1058): 0.7806 ± 0.0001
mean ionic activity coefficient (m1 = 0.1293): 0.769 ± 0.0001
mean ionic activity coefficient (m1 = 0.1517): 0.7599 ± 0.0001
mean ionic activity coefficient (m1 = 0.1747): 0.7521 ± 0.0001
mean ionic activity coefficient (m1 = 0.2107): 0.7421 ± 0.0001
mean ionic activity coefficient (m1 = 0.2467): 0.7342 ± 0.0001
mean ionic activity coefficient (m1 = 0.2819): 0.7278 ± 0.0001
mean ionic activity coefficient (m1 = 0.3349): 0.7202 ± 0.0001
mean ionic activity coefficient (m1 = 0.3859): 0.7146 ± 0.0001
mean ionic activity coefficient (m1 = 0.4584): 0.7086 ± 0.0001
mean ionic activity coefficient (m1 = 0.5332): 0.7043 ± 0.0001
mean ionic activity coefficient (m1 = 0.6214): 0.701 ± 0.0001
